Test results taken from ChEMBL document CHEMBL1201862, “PubChem BioAssay data set” (2004).
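Grown in 96-well plates, cells were treated for 48 hours with each compound at five concentrations. Insufficient inhibition: endpoint recorded as highest concentration tested. GI50: concentration for 50% inhibition of growth.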 Activity calls are given as the source filed them. Rule as the data show it: active = GI50 up to about 1.1 µM and inactive = higher.

Legend:
Experiment in all cases: DTP human tumour cell line panel, 48 h
HL-60 = tested on: HL-60
BT-549 = tested on: BT-549
SF-539 = tested on: SF-539
SN12C = tested on: SN12C
RPMI-8226 = tested on: RPMI-8226
SK-OV-3 = tested on: SK-OV-3
CAKI-1 = tested on: CAKI-1
HCC 2998 = tested on: HCC 2998
TK-10 = tested on: TK-10
UACC-257 = tested on: UACC-257
UACC-62 = tested on: UACC-62
HCT-116 = tested on: HCT-116
MOLT-4 = tested on: MOLT-4
SK-MEL-2 = tested on: SK-MEL-2
ACHN = tested on: ACHN
K562 = tested on: K562
IGROV-1 = tested on: IGROV-1
U-251 = tested on: U-251
SNB-19 = tested on: SNB-19
SK-MEL-5 = tested on: SK-MEL-5

| Structure (SMILES) | GI50 (HL-60) | GI50 (BT-549) | GI50 (SF-539) | GI50 (SN12C) | GI50 (RPMI-8226) | GI50 (SK-OV-3) | GI50 (CAKI-1) | GI50 (HCC 2998) | GI50 (TK-10) | GI50 (UACC-257) | GI50 (UACC-62) | GI50 (HCT-116) | GI50 (MOLT-4) | GI50 (SK-MEL-2) | GI50 (ACHN) | GI50 (K562) | GI50 (IGROV-1) | GI50 (U-251) | GI50 (SNB-19) | GI50 (SK-MEL-5) |
| --- | --- | --- | --- | --- | --- | --- | --- | --- | --- | --- | --- | --- | --- | --- | --- | --- | --- | --- | --- | --- |
| COc1ccc(OC/C(N)=N/NC(=O)c2ccncc2)cc1 | > 100 µM (inactive) | > 100 µM (inactive) | > 100 µM (inactive) | > 100 µM (inactive) | > 100 µM (inactive) | > 100 µM (inactive) | > 100 µM (inactive) | > 100 µM (inactive) | > 100 µM (inactive) | > 100 µM (inactive) | > 100 µM (inactive) | > 100 µM (inactive) | > 100 µM (inactive) | > 100 µM (inactive) | > 100 µM (inactive) | > 100 µM (inactive) | > 100 µM (inactive) | > 100 µM (inactive) | > 100 µM (inactive) | – |
| CC[C@@]1(O)C(=O)OCc2c1cc1n(c2=O)Cc2cc3cc4c(cc3nc2-1)OCO4 | 0.00133 µM (active) | 0.0118 µM (active) | < 0.001 µM (active) | < 0.001 µM (active) | 0.0281 µM (active) | 0.002 µM (active) | 0.00173 µM (active) | 0.0238 µM (active) | 0.502 µM (active) | 0.054 µM (active) | < 0.001 µM (active) | 0.00167 µM (active) | < 0.001 µM (active) | 0.0224 µM (active) | < 0.001 µM (active) | 0.00304 µM (active) | 0.00948 µM (active) | < 0.001 µM (active) | 0.00152 µM (active) | 0.00169 µM (active) |
| Cc1c2ccnc(C(=O)NCCN(C)C)c2cc2c3cc(O)ccc3n(C)c12 | < 0.022 µM (active) | 2.06 µM (inactive) | 0.0603 µM (active) | 0.0596 µM (active) | 0.0927 µM (active) | 0.162 µM (active) | < 0.01 µM (active) | 0.573 µM (active) | 2 µM (inactive) | 1.53 µM (inactive) | 0.15 µM (active) | 0.0608 µM (active) | < 0.01 µM (active) | 0.499 µM (active) | 0.0188 µM (active) | 0.123 µM (active) | 0.277 µM (active) | 0.0373 µM (active) | 0.184 µM (active) | 0.149 µM (active) |
| NC1=NCN(C2OC(CO)C(O)C2O)C(=O)N1 (centres undefined) | 0.838 µM (active) | 9.62 µM (inactive) | 24.3 µM (inactive) | 349 µM (inactive) | 1.8 µM (inactive) | 126 µM (inactive) | 69 µM (inactive) | 40.4 µM (inactive) | 11.4 µM (inactive) | 49 µM (inactive) | 15.2 µM (inactive) | 16.6 µM (inactive) | 5.21 µM (inactive) | 0.977 µM (active) | 0.802 µM (active) | 2.28 µM (inactive) | 5.74 µM (inactive) | 27.9 µM (inactive) | 159 µM (inactive) | 42 µM (inactive) |
| COc1ccc(/C=C2\C[C@H]3[C@@H]4CCC5=CC(=O)CC[C@]5(C)[C@H]4CC[C@]3(C)C2=O)cc1OC | 1.37 µM (inactive) | 6.34 µM (inactive) | 40 µM (inactive) | 14.4 µM (inactive) | 3.89 µM (inactive) | 0.0627 µM (active) | 6.97 µM (inactive) | 21.8 µM (inactive) | – | 4.6 µM (inactive) | 6.24 µM (inactive) | 8.05 µM (inactive) | 3.44 µM (inactive) | 4.13 µM (inactive) | 9.04 µM (inactive) | 3.8 µM (inactive) | 10.4 µM (inactive) | – | 44.6 µM (inactive) | 2.46 µM (inactive) |
| OCC(O)COCn1cc(Cn2ncc3c(SCc4ccccc4)ncnc32)nn1 (centres undefined) | > 100 µM (inactive) | > 100 µM (inactive) | > 100 µM (inactive) | > 100 µM (inactive) | > 100 µM (inactive) | > 100 µM (inactive) | > 100 µM (inactive) | > 100 µM (inactive) | > 100 µM (inactive) | > 100 µM (inactive) | > 100 µM (inactive) | > 100 µM (inactive) | > 100 µM (inactive) | > 100 µM (inactive) | > 100 µM (inactive) | > 100 µM (inactive) | > 100 µM (inactive) | > 100 µM (inactive) | > 100 µM (inactive) | > 100 µM (inactive) |
| N=C(N)Nc1ccc(CC(N)C(=O)NCC(=O)C(CC(=O)O)c2ncc(NC(=O)C(F)(F)F)o2)cc1 (centres undefined) | > 25 µM (inactive) | > 25 µM (inactive) | > 25 µM (inactive) | 9.27 µM (inactive) | > 25 µM (inactive) | > 25 µM (inactive) | > 25 µM (inactive) | > 25 µM (inactive) | > 25 µM (inactive) | > 25 µM (inactive) | > 25 µM (inactive) | > 25 µM (inactive) | – | > 25 µM (inactive) | > 25 µM (inactive) | – | > 25 µM (inactive) | > 25 µM (inactive) | – | > 25 µM (inactive) |
| C[N+]1(CCC(=O)c2ccccc2)CCC2CCC(C2)C1 (centres undefined) | > 100 µM (inactive) | > 100 µM (inactive) | > 100 µM (inactive) | > 100 µM (inactive) | > 100 µM (inactive) | > 100 µM (inactive) | > 100 µM (inactive) | > 100 µM (inactive) | > 100 µM (inactive) | > 100 µM (inactive) | > 100 µM (inactive) | > 100 µM (inactive) | > 100 µM (inactive) | > 100 µM (inactive) | > 100 µM (inactive) | > 100 µM (inactive) | > 100 µM (inactive) | > 100 µM (inactive) | > 100 µM (inactive) | > 100 µM (inactive) |
| COc1cccc([C@H]2C/C(=N\NC(=O)C(=O)N[C@@H](C)c3ccccc3)c3ccccc3N2)c1 | > 10 µM (inactive) | > 10 µM (inactive) | 7.82 µM (inactive) | 0.0184 µM (active) | < 0.01 µM (active) | 0.0491 µM (active) | 0.0354 µM (active) | 0.017 µM (active) | > 10 µM (inactive) | 0.0361 µM (active) | < 0.01 µM (active) | 0.0209 µM (active) | > 10 µM (inactive) | 3.69 µM (inactive) | 0.0381 µM (active) | < 0.01 µM (active) | > 10 µM (inactive) | 7.67 µM (inactive) | 6.52 µM (inactive) | < 0.01 µM (active) |
| CC1(C)OCC(C2CCC3(C)C4=CCC5C(C)(C)C(O)CCC5(C)C4CCC23C)CC(O)C1O (centres undefined) | 12.3 µM (inactive) | 15.9 µM (inactive) | 18.8 µM (inactive) | 18.7 µM (inactive) | 6.75 µM (inactive) | 18.3 µM (inactive) | 14 µM (inactive) | 15.5 µM (inactive) | 13.6 µM (inactive) | 12.2 µM (inactive) | 14.5 µM (inactive) | 13.2 µM (inactive) | 14.4 µM (inactive) | 16.3 µM (inactive) | 20.2 µM (inactive) | 4.22 µM (inactive) | 18.7 µM (inactive) | 15.4 µM (inactive) | 14.8 µM (inactive) | 15.1 µM (inactive) |
| CCOC(=O)/C=C(\C(=O)OCC)n1cc(Cl)c(=O)n(CC(=O)OCC)c1=O | 2.81 µM (inactive) | 18 µM (inactive) | 14 µM (inactive) | 14.5 µM (inactive) | 1.74 µM (inactive) | 19.5 µM (inactive) | 2.25 µM (inactive) | 21.1 µM (inactive) | 1.89 µM (inactive) | 2.96 µM (inactive) | 10.9 µM (inactive) | 2.19 µM (inactive) | 1.91 µM (inactive) | 16.2 µM (inactive) | 1.63 µM (inactive) | – | 6.93 µM (inactive) | 15.6 µM (inactive) | 18.8 µM (inactive) | 15.7 µM (inactive) |
| CCOP(=O)(OCC)C1CC(n2cc(C)c(=O)[nH]c2=O)OC1CO (centres undefined) | > 100 µM (inactive) | > 100 µM (inactive) | > 100 µM (inactive) | > 100 µM (inactive) | > 100 µM (inactive) | – | > 100 µM (inactive) | > 100 µM (inactive) | > 100 µM (inactive) | > 100 µM (inactive) | > 100 µM (inactive) | > 100 µM (inactive) | > 100 µM (inactive) | > 100 µM (inactive) | > 100 µM (inactive) | > 100 µM (inactive) | > 100 µM (inactive) | > 100 µM (inactive) | > 100 µM (inactive) | > 100 µM (inactive) |
| Nc1nc(Nc2cc(F)c(Cl)c(F)c2)cc(=O)[nH]1 | 44.3 µM (inactive) | 60.3 µM (inactive) | > 100 µM (inactive) | > 100 µM (inactive) | 56.4 µM (inactive) | 68.1 µM (inactive) | > 100 µM (inactive) | 15.9 µM (inactive) | > 100 µM (inactive) | > 100 µM (inactive) | 68.9 µM (inactive) | 74.3 µM (inactive) | 55.6 µM (inactive) | 71.4 µM (inactive) | 84.7 µM (inactive) | – | > 100 µM (inactive) | 81.7 µM (inactive) | 37 µM (inactive) | 53.5 µM (inactive) |
| O=C1NC(c2ccc3ccccc3c2)Nc2ccccc21 (centres undefined) | 15.2 µM (inactive) | 5.26 µM (inactive) | 20.7 µM (inactive) | – | 29.9 µM (inactive) | 53.5 µM (inactive) | 59.7 µM (inactive) | 51.9 µM (inactive) | > 100 µM (inactive) | 57.9 µM (inactive) | 21.9 µM (inactive) | 33.1 µM (inactive) | – | 35.9 µM (inactive) | 48.1 µM (inactive) | 2.54 µM (inactive) | 23.6 µM (inactive) | > 100 µM (inactive) | 51.8 µM (inactive) | 20 µM (inactive) |
